Measured values reported in ChEMBL document CHEMBL5715260, “Selectivity Literature for EUbOPEN Chemogenomic Library” (2024).
Where a SMILES comes first, the peptide text is derived from it. [ ]: non-standard residue; d: D form. The star is where a group is joined. Benzoyl(4-tBu) = CC(C)(C)c1ccc(C(=O)*)cc1; Lys(Et2) = CCN(CC)CCCC[C@H](N)C(=O)O

How the values were obtained:
[1] = biological target: Nuclear receptor subfamily 2 group E member 1 (Homo sapiens) (UniProt Q9Y466); assay: Selectivity interaction (Reporter gene assay) EUB0000082b NR2E1; set-up: recommended concentration 3 uM; details: screened at recom. conc., Selectivity number of off-targets 2.0, Selectivity number of targets 5.0, Source Knowledge inhouse
Nuclear receptor subfamily 2 group E member 1 (Homo sapiens), sequence (Q9Y466 whole entry): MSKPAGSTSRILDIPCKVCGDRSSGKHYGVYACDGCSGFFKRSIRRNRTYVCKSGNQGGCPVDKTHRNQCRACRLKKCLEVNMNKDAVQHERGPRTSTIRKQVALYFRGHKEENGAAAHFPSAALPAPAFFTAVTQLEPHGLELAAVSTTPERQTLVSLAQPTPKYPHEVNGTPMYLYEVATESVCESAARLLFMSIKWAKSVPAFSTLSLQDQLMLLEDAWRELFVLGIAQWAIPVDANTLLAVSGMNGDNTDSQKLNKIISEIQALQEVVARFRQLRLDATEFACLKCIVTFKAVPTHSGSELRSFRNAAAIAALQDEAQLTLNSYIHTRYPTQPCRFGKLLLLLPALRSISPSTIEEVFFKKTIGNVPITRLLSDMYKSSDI

[2] = biological target: T1, Retinoic acid receptor RXR-alpha (Homo sapiens) (UniProt P19793); assay: Selectivity interaction (Reporter gene assay) EUB0000082b RXRA; set-up: recommended concentration 3 uM; details: reference bexarotene 1 uM, Selectivity number of off-targets 0.0, Selectivity number of targets 1.0, Source Knowledge inhouse
T1 sequence (whole entry): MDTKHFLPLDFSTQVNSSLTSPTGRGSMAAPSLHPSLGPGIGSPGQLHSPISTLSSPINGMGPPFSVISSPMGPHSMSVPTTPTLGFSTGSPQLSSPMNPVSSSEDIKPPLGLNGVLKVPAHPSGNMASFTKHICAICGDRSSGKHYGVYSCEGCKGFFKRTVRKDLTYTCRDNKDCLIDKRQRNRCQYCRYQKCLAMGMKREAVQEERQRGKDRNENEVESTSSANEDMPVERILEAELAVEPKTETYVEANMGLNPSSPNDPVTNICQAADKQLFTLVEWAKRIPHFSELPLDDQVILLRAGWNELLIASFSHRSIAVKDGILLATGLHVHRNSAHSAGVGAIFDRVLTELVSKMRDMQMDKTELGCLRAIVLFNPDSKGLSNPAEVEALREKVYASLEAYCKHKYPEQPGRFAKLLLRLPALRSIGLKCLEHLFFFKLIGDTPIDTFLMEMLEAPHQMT

[3] = biological target: NR1I2 (nuclear receptor subfamily 1 group I member 2, PXR) (Homo sapiens, UniProt O75469); assay: Selectivity interaction (Reporter gene assay) EUB0000082b NR1I2; set-up: recommended concentration 3 uM; details: read-out: Fold activation
NR1I2 (nuclear receptor subfamily 1 group I member 2, PXR), sequence (O75469 whole entry): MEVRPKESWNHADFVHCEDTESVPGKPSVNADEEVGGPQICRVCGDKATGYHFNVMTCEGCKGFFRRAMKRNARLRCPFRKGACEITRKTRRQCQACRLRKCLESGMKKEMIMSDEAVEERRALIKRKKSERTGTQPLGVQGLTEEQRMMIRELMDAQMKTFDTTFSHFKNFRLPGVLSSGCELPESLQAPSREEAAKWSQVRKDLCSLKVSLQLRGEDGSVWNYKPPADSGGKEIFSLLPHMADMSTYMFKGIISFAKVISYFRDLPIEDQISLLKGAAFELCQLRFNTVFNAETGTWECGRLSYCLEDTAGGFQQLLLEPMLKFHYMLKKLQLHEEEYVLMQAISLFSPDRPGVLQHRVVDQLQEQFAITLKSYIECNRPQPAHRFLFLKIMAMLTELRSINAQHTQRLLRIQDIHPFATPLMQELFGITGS

[4] = biological target: T2, Hepatocyte nuclear factor 4-alpha (Homo sapiens) (UniProt P41235); assay: Selectivity interaction (Reporter gene assay) EUB0000082b HNF4A; set-up: recommended concentration 3 uM
T2 sequence (whole entry): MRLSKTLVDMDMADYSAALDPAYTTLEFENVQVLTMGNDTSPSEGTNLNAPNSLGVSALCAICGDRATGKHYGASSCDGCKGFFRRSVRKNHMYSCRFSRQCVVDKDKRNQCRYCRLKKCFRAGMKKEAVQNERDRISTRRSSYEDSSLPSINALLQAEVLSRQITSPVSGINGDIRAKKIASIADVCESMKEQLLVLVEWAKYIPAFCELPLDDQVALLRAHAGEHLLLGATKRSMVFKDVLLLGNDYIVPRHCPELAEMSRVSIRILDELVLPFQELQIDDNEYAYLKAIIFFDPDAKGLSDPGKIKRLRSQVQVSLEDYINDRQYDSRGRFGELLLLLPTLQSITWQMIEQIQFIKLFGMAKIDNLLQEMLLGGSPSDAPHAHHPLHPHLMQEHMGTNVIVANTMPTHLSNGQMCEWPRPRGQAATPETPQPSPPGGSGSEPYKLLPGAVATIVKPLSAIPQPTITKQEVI

[5] = biological target: Nuclear receptor subfamily 4immunitygroup A member 1 (Homo sapiens) (UniProt P22736); assay: Selectivity interaction (Reporter gene assay) EUB0000082b NR4A1; set-up: recommended concentration 3 uM
Nuclear receptor subfamily 4immunitygroup A member 1 (Homo sapiens), sequence (P22736 whole entry): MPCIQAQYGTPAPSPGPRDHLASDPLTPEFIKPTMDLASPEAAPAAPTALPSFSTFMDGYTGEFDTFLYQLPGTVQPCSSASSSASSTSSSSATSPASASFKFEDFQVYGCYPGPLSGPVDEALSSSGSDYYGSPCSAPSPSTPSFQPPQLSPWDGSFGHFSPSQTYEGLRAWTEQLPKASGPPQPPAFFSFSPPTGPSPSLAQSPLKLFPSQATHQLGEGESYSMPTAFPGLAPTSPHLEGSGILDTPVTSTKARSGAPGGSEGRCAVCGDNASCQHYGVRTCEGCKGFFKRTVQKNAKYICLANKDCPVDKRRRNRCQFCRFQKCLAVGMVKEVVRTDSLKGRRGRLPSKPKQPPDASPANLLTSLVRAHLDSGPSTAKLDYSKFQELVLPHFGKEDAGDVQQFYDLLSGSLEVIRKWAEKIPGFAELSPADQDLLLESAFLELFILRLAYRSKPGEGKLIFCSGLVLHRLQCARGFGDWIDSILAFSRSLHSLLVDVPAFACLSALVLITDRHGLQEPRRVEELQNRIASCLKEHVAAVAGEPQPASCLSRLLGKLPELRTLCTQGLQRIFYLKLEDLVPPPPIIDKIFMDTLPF

[6] = biological target: Steroidogenic factor 1 (Homo sapiens) (UniProt Q13285); assay: Selectivity interaction (Reporter gene assay) EUB0000082b NR5A1; set-up: recommended concentration 3 uM
Steroidogenic factor 1 (Homo sapiens), sequence (Q13285 whole entry): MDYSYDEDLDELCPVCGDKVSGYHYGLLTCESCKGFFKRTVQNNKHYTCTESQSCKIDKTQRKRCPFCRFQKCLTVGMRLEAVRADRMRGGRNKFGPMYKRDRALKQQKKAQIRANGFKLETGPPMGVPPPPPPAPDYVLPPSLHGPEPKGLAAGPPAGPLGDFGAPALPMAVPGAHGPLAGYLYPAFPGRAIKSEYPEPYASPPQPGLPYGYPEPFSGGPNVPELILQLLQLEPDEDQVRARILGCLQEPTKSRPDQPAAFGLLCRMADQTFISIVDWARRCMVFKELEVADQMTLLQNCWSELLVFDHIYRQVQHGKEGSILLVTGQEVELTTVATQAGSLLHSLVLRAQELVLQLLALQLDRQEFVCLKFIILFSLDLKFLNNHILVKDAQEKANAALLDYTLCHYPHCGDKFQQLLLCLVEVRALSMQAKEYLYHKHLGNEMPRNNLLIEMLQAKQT

[7] = biological target: T3, Nuclear receptor subfamily 2 group C member 1 (Homo sapiens) (UniProt P13056); assay: Selectivity interaction (Reporter gene assay) EUB0000082b NR2C1; set-up: recommended concentration 3 uM
T3 sequence (whole entry): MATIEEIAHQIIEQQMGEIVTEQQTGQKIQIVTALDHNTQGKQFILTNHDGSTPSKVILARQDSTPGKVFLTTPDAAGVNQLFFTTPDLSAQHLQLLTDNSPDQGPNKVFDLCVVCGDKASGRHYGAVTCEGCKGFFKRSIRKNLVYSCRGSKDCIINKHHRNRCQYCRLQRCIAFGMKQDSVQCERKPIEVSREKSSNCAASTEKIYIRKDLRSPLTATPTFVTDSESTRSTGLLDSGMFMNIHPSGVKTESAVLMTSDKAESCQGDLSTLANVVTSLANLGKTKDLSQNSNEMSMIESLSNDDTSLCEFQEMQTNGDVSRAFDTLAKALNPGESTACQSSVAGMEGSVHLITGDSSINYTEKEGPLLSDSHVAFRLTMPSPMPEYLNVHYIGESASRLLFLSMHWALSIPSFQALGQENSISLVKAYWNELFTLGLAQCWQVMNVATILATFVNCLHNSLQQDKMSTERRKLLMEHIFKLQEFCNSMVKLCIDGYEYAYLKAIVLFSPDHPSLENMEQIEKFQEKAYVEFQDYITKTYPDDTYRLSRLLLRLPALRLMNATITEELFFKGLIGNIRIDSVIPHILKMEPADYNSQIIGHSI

[8] = biological target: T4, Alpha trans-inducing protein (Human alphaherpesvirus 1) (UniProt A0A5J6DW59); assay: Selectivity interaction (Reporter gene assay) EUB0000082b UL48; set-up: recommended concentration 3 uM
T4 sequence (A0A5J6DW59 as listed by the source): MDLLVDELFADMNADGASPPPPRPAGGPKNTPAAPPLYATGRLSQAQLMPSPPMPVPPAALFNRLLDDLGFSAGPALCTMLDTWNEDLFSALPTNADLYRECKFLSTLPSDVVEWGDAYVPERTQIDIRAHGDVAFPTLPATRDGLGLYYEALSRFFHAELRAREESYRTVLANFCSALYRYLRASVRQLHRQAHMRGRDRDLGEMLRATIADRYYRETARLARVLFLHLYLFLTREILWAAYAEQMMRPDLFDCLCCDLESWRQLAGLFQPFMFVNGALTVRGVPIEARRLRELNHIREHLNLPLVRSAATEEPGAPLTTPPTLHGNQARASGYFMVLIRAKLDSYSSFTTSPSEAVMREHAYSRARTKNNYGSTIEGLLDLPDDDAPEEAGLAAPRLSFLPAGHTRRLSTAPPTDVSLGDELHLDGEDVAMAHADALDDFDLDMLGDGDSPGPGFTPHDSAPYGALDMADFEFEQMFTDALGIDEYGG

[9] = biological target: T1, Retinoic acid receptor RXR-alpha (Homo sapiens); assay: Selectivity interaction (Reporter gene assay) EUB0002355a RXRA; set-up: recommended concentration 3 uM; details: reference bexarotene 1 uM, Selectivity number of off-targets 0.0, Selectivity number of targets 1.0, Source Knowledge inhouse
[10] = biological target: Steroidogenic factor 1 (Homo sapiens) (UniProt Q13285); assay: Selectivity interaction (Reporter gene assay) EUB0002355a NR5A1; set-up: recommended concentration 3 uM
[11] = biological target: Nuclear receptor subfamily 2 group E member 1 (Homo sapiens) (UniProt Q9Y466); assay: Selectivity interaction (Reporter gene assay) EUB0002355a NR2E1; set-up: recommended concentration 3 uM
[12] = biological target: T3, Nuclear receptor subfamily 2 group C member 1 (Homo sapiens); assay: Selectivity interaction (Reporter gene assay) EUB0002355a NR2C1; set-up: recommended concentration 3 uM
[13] = biological target: Nuclear receptor subfamily 4immunitygroup A member 1 (Homo sapiens) (UniProt P22736); assay: Selectivity interaction (Reporter gene assay) EUB0002355a NR4A1; set-up: recommended concentration 3 uM
[14] = biological target: T2, Hepatocyte nuclear factor 4-alpha (Homo sapiens); assay: Selectivity interaction (Reporter gene assay) EUB0002355a HNF4A; set-up: recommended concentration 3 uM
[15] = biological target: T4, Alpha trans-inducing protein (Human alphaherpesvirus 1); assay: Selectivity interaction (Reporter gene assay) EUB0002355a UL48; set-up: recommended concentration 3 uM
[16] = biological target: Bromodomain and PHD finger-containing protein 3 (Homo sapiens) (UniProt Q9ULD4); details: at 1 µM
[17] = biological target: Bromodomain-containing protein 1 (Homo sapiens) (UniProt O95696); details: at 1 µM
Mu-type opioid receptor [18] = biological target: T5, Mu-type opioid receptor (Homo sapiens, UniProt P35372); assay: Selectivity interaction (CEREP panel) EUB0002346a OPRM1; set-up: recommended concentration 1 uM; details: at 10 µM
T5 sequence (P35372 whole entry): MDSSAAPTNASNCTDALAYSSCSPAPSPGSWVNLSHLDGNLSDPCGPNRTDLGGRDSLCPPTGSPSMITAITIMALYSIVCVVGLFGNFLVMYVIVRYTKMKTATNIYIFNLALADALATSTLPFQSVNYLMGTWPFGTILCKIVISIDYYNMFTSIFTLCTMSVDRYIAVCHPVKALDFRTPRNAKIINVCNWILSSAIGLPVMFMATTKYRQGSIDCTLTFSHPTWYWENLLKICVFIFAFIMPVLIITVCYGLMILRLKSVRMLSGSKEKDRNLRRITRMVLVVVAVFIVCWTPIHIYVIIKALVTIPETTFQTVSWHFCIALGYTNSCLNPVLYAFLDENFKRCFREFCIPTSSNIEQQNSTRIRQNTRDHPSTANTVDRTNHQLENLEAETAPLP

[19] = biological target: T6, Kappa-type opioid receptor (Homo sapiens, UniProt P41145); assay: Selectivity interaction (CEREP panel) EUB0002346a OPRK1; set-up: recommended concentration 1 uM; details: at 10 µM
T6 sequence (P41145 whole entry): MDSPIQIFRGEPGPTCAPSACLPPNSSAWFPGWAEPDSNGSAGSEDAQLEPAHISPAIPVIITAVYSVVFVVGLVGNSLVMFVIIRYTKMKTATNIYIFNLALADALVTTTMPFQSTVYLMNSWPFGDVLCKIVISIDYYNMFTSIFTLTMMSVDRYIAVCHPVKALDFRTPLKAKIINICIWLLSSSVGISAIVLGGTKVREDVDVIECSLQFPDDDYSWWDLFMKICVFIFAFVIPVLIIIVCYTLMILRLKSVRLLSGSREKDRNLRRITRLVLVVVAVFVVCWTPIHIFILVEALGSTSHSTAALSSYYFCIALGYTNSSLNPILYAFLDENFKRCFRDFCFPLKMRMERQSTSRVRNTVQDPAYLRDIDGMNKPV

[20] = biological target: Delta-type opioid receptor (Homo sapiens, UniProt P41143); assay: Selectivity interaction (NIMH PDSP panel) EUB0002346a OPRD1; set-up: recommended concentration 1 uM; details: at 10 µM
Delta-type opioid receptor, sequence (P41143 whole entry): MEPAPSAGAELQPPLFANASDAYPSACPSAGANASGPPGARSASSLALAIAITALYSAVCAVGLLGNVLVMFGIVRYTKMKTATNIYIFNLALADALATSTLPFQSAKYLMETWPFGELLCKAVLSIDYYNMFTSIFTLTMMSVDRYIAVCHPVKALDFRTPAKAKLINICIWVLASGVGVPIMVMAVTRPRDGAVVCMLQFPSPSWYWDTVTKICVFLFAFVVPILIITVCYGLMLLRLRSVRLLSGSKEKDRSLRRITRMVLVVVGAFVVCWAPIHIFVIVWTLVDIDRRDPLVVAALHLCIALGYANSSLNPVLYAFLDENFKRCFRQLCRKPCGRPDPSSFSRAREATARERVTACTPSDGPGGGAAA

Mu-type opioid receptor [21] = biological target: T5, Mu-type opioid receptor; assay: Selectivity interaction (NIMH PDSP panel) EUB0002346a OPRM1; set-up: recommended concentration 1 uM; details: at 10 µM
[22] = biological target: T6, Kappa-type opioid receptor; assay: Selectivity interaction (NIMH PDSP panel) EUB0002346a OPRK1; set-up: recommended concentration 1 uM; details: at 10 µM
[23] = biological target: Vasopressin V1a receptor (Homo sapiens) (UniProt P37288); assay: Selectivity interaction (CEREP panel) EUB0002346a AVPR1A; set-up: recommended concentration 1 uM; details: at 10 µM
Vasopressin V1a receptor (Homo sapiens), sequence (P37288 whole entry, looked up): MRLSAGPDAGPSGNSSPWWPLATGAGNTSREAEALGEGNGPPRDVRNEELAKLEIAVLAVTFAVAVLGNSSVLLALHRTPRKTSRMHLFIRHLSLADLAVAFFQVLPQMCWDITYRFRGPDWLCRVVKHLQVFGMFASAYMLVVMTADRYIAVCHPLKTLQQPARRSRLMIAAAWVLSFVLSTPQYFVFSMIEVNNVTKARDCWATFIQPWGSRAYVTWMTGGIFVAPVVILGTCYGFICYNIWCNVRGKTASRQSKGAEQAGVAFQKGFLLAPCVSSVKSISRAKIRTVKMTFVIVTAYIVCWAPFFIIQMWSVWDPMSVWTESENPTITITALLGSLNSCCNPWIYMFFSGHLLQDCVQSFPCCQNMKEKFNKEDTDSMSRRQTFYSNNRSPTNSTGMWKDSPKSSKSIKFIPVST

[24] = biological target: Vasopressin V1a receptor (Homo sapiens) (UniProt P37288); assay: Selectivity interaction (NIMH PDSP panel) EUB0002346a AVPR1A; set-up: recommended concentration 1 uM; details: at 10 µM
[25] = biological target: Substance-K receptor (Homo sapiens) (UniProt P21452); assay: Selectivity interaction (CEREP panel) EUB0002346a TACR2; set-up: recommended concentration 1 uM; details: at 10 µM
Substance-K receptor (Homo sapiens), sequence (P21452 whole entry): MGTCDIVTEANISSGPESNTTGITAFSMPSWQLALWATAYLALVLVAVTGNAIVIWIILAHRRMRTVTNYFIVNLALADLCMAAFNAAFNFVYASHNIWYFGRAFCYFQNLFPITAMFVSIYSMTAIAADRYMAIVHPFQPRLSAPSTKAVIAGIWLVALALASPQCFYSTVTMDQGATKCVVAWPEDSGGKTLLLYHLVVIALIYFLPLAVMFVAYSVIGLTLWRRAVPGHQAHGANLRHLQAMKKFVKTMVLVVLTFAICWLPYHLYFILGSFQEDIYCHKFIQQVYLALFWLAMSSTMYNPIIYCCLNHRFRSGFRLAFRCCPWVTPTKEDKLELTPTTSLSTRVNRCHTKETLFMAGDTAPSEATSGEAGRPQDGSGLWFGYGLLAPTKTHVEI

[26] = biological target: Substance-P receptor (Homo sapiens) (UniProt P25103); assay: Selectivity interaction (NIMH PDSP panel) EUB0002346a TACR1; set-up: recommended concentration 1 uM; details: at 10 µM
Substance-P receptor (Homo sapiens), sequence (P25103 whole entry): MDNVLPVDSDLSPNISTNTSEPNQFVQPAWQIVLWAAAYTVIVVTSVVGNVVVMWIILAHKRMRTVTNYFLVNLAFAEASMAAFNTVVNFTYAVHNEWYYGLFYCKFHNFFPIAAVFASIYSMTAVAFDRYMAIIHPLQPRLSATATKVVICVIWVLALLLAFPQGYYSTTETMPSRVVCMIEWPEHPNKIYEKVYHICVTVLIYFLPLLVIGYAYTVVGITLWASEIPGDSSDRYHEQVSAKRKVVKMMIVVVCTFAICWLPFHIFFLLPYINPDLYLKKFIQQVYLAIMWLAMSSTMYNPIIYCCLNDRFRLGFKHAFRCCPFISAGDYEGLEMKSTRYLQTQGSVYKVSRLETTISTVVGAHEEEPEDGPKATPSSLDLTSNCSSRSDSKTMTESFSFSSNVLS

[27] = biological target: Vasopressin V2 receptor (Homo sapiens) (UniProt P30518); assay: Selectivity interaction (NIMH PDSP panel) EUB0002346a AVPR2; set-up: recommended concentration 1 uM; details: at 10 µM
[28] = biological target: Substance-K receptor (Homo sapiens) (UniProt P21452); assay: Selectivity interaction (NIMH PDSP panel) EUB0002346a TACR2; set-up: recommended concentration 1 uM; details: at 10 µM
[29] = biological target: Vasopressin V1b receptor (Homo sapiens) (UniProt P47901); assay: Selectivity interaction (NIMH PDSP panel) EUB0002346a AVPR1B; set-up: recommended concentration 1 uM; details: at 10 µM

Compound: Fc1ccc(-c2c3cccc(C(F)(F)F)c3nn2Cc2ccc(F)cc2Cl)cc1 [LXR-623]
- Fold activation [1]: 1.84
- Relative activation [2]: 0.523%
- fold induction [3]: 2.24
- Fold activation [4]: 0.867
- Fold activation [5]: 1.28
- Remaining activity [6]: 0.876
- Fold activation [7]: 1.63
- P-value [8]: 4.11e-06

Compound: Cc1oc2ccccc2c1Cc1cc(I)c(OCC(=O)O)c(I)c1
- Relative activation [9]: 0.91%
- Remaining activity [10]: 0.684
- Remaining activity [11]: 0.732
- Fold activation [12]: 1.28
- Fold activation [13]: 1.02
- Remaining activity [14]: 0.739
- P-value [15]: 0.0128

Compound: CCCOc1cc(OCCCCN(C)C)cc(Oc2cc3c(cc2NS(=O)(=O)c2ccc(OC)c(OC)c2)n(C)c(=O)n3C)c1
- Control [16]: 0%
- Control [17]: 0%

Compound: CCN(CC)CCCC[C@H](NC(=O)[C@H](CC(C)C)NC(=O)[C@H](C)NC(=O)[C@H](Cc1ccccc1)NC(=O)c1ccc(C(C)(C)C)cc1)C(=O)N[C@@H](CO)C(=O)OC ({Benzoyl(4-tBu)}-FAL[Lys(Et2)]S-OMe)
- Inhibition of control (Mu-type opioid receptor [18]): 51%
- Inhibition of control [19]: 91%
- Inhibition of control [20]: > 50%
- Inhibition of control (Mu-type opioid receptor [21]): > 50%
- Inhibition of control [22]: > 50%
- Inhibition of control [23]: 85%
- Inhibition of control [24]: > 50%
- Inhibition of control [25]: 75%
- Inhibition of control [26]: > 50%
- Inhibition of control [27]: > 50%
- Inhibition of control [28]: > 50%
- Inhibition of control [29]: > 50%
